Measured values from PubChem BioAssay (NCI).
“And” between values parts separate entries of the source, which are not always exact repeats. Equal entries are not always repeated.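 Cells were grown in 96-well plates and exposed to each compound for 48 hours at five concentrations; endpoints were interpolated linearly between bracketing concentrations, or set to the highest concentration if not reached. Abbreviation: GI50, concentration required for 50% inhibition of growth. TGI marks complete inhibition of growth.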

Legend:
Assay in all cases: NCI anticancer screen, dose series, 48 h
[1] = system: 786-0 renal
[2] = system: A498 renal
[3] = system: HL-60(TB) leukemia
[4] = system: SK-OV-3 ovarian
[5] = system: UACC-257 melanoma
[6] = system: UACC-62 melanoma
[7] = system: DU-145 prostate
[8] = system: HS 578T breast
[9] = system: PC-3 prostate

Structure (SMILES)	TGI [1]	TGI [2]	TGI [3]	TGI [4]	TGI [5]	TGI [6]	TGI [7] [µM]	TGI [8] [µM]	TGI [9] [µM]	GI50 [2] [µM]	GI50 [3] [µM]	GI50 [4] [µM]	GI50 [5] [µM]	GI50 [6] [µM]	GI50 [1]
C[N+](C)(C)CC1CCC(C[N+](C)(C)C)C1=NO (configuration not stated)	> 100 µM	> 100 µM	> 100 µM	> 100 µM	> 100 µM	> 100 µM	–	–	–	–	–	–	–	–	–
COC(=O)Cc1cc(=O)n2c3ccccc3n(C)c2c1C#N	> 100 µM	> 100 µM	> 100 µM	> 100 µM	> 100 µM	–	–	–	–	–	–	–	–	–	–
CC(C)c1ccc(O)c(Cc2cc(C(C)C)cc(Cc3cc(C(C)C)ccc3O)c2O)c1	3.08 µM	2.82 µM	4.36 µM	3.05 µM	3.41 µM	8.48 µM	–	–	–	–	–	–	–	–	–
FC(F)(F)c1ccccc1C1SCc2nc3ccccc3n21 (configuration not stated)	> 100 µM	94.4 µM	47 µM	> 100 µM	> 100 µM	> 100 µM	–	–	–	–	–	–	–	–	–
CC(=O)CCC1(c2ccccc2)OC(=O)C(C#N)=C1c1ccccc1 (configuration not stated)	> 100 µM	> 100 µM	–	> 100 µM	> 100 µM	> 100 µM	–	–	–	–	–	–	–	–	–
Cc1cc(N(CCC#N)CCC#N)ccc1/C=C(\NC(=O)/C=C/c1ccccc1)C(=O)Nc1ccccc1Cl	> 100 µM	> 100 µM	> 100 µM	–	> 100 µM	> 100 µM	–	–	–	–	–	–	–	–	–
CCCCCCCCCCCCCCCCCc1nc(Cl)nc(Cl)c1Cl	> 100 µM	–	> 100 µM	> 100 µM	–	> 100 µM	> 100	> 100	> 100	–	–	–	–	–	–
Fc1ccccc1CN1COc2c(cc(Cl)c3cccnc23)C1	21.5 µM	–	10.4 µM	19.6 µM	8.73 µM	1.74 µM	16.4	20.8	10.6	–	–	–	–	–	–
Cc1c(Cl)ccc2c1NC(=O)C2(O)CC(=O)c1ccc(Cl)cc1 (configuration not stated)	> 100 µM	> 64.1 µM	> 80.6 µM	> 100 µM	> 55.9 µM	> 71.5 µM	–	–	–	–	–	–	–	–	–
Cc1cc(Cl)ccc1N=C1NC(=O)C(CC(=O)Nc2cccc(Cl)c2)S1 (configuration not stated)	> 100 µM	92.4 µM	> 100 µM	> 100 µM	> 100 µM	> 100 µM	–	–	–	–	–	–	–	–	–
COC(=O)C1=NC(=S)NC(c2ccccc2)C1c1nc2ccccc2o1 (configuration not stated)	> 50 µM	> 50 µM	> 50 µM	> 50 µM	> 50 µM	> 50 µM	–	–	–	–	–	–	–	–	–
COC(=O)c1c(C(=O)OC)c(-c2ccccc2)n(-c2ccccc2)c(=O)c1-c1ccccc1	> 100 µM	> 100 µM	> 100 µM	> 100 µM	> 100 µM	> 100 µM	–	–	–	–	–	–	–	–	–
COc1ccc(/C=C/C(=O)c2c(-c3ccccc3)nn(C)c(=O)c2N2CC2C)cc1 (configuration not stated)	> 100 µM	80.7 µM	60.2 µM	71.3 µM	> 100 µM	71.2 µM	–	–	–	–	–	–	–	–	–
N#C/C(=C\c1ccc(O)cc1)C(N)=O	> 100 µM	> 100 µM	> 100 µM	> 100 µM	> 100 µM	> 100 µM	–	–	–	–	–	–	–	–	–
Cc1cc(NCCCCCCCNc2cc(C)nc3cc(N)ccc23)c2ccc(N)cc2n1	> 100 µM	> 100 µM	23.9 µM	> 100 µM	> 100 µM	> 100 µM	–	–	–	–	–	–	–	–	–
O=C(N/C(=C\c1ccc([N+](=O)[O-])cc1)c1nc2ccccc2s1)c1ccccc1	34.1 µM	> 100 µM	–	> 100 µM	85.2 µM	48.3 µM	–	–	–	–	–	–	–	–	–
O=P(CN1CCOCC1)(c1ccccc1)c1ccccc1	> 100 µM	> 100 µM	> 100 µM	> 100 µM	> 100 µM	> 100 µM	–	–	–	–	–	–	–	–	–
CC1[C@@]2(CCC(C)(C)O2)O[C@@H]2C=C3C4CCC5Cc6nc7c(nc6C[C@@]5(C)C4C[C@H](O)[C@@]3(C)[C@]12O)CC1CCC2C3=C[C@H]4O[C@@]5(O[C@@](C)(CO)C[C@@H]5O)C(C)[C@@]4(O)[C@]3(C)[C@@H](O)CC2[C@]1(C)C7 (some centres not stated)	0.6 µM	0.14 µM and 0.0426 µM	0.331 µM and 0.0465 µM	–	0.358 µM and 0.0847 µM	–	–	–	–	0.00106	< 0.000365	0.00178	0.0265	0.00387	–
C/C=C/C=C/c1cc2cc3c(c(O)c2c(=O)[nH]1)C1(CC3)C(O)=c2c(=O)c3c(=O)cc(OC)c(=O)c=3c(=O)c2=C1O (configuration not stated)	4.37 µM and 8.39 µM	–	3.95 µM	16 µM and 8.75 µM	1.87 µM and 6.45 µM	4.34 µM and 14.7 µM	15.8	26.7	0.654	–	0.669	–	–	–	0.41 µM and 1.91 µM
COC(=O)CC1(O)C(=O)OCc2c1cc1n(c2=O)Cc2c-1nc1ccccc1c2OC (configuration not stated)	0.813 µM	11.5 µM	0.778 µM	17.4 µM	> 100 µM	2.29 µM	–	–	–	–	–	–	–	–	–
CCOc1ccc(NC(=O)CC2SC(=Nc3ccc(C)cc3)NC2=O)cc1 (configuration not stated)	> 100 µM	> 100 µM	–	> 100 µM	> 100 µM	> 100 µM	–	–	–	–	–	–	–	–	–
CC1NOC(=O)C1N=Nc1cccc(Cl)c1 (configuration not stated)	> 100 µM	52.5 µM	56.8 µM	96.1 µM	> 100 µM	> 100 µM	–	–	–	–	–	–	–	–	–
